Like-named read-outs stand apart in the source and are kept apart here.
Experiments:
[1] = test system: cocaine- or nicotine-induced increases in synaptic dopamine (corpus striatum); type: in vivo, rat
[2] = biological target: T1, aspartate aminotransferase (Asp-AT) (Sus scrofa, UniProt P00503); settings: cited from earlier work
[3] = test system: alanine aminotransferase (Ala-AT); settings: cited from earlier work
[4] = biological target: T2, ornithine aminotransferase (OAT) (Homo sapiens, UniProt P04181); settings: cited from earlier work
T2 sequence (P04181 36-439 limits assumed): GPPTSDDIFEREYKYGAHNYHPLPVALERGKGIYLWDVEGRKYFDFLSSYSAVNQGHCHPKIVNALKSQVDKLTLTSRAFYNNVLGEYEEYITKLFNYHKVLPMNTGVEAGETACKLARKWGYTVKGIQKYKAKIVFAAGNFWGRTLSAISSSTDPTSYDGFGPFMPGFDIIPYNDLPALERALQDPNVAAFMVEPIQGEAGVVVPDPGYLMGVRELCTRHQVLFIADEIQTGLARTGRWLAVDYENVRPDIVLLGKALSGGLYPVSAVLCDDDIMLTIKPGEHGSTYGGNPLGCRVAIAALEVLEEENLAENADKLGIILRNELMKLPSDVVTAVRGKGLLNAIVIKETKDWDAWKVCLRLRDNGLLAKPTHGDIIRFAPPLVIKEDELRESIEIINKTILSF

[5] = biological target: T3, hERG channel (Homo sapiens, UniProt Q12809); settings: cited from earlier work
T3 sequence (Q12809 whole entry): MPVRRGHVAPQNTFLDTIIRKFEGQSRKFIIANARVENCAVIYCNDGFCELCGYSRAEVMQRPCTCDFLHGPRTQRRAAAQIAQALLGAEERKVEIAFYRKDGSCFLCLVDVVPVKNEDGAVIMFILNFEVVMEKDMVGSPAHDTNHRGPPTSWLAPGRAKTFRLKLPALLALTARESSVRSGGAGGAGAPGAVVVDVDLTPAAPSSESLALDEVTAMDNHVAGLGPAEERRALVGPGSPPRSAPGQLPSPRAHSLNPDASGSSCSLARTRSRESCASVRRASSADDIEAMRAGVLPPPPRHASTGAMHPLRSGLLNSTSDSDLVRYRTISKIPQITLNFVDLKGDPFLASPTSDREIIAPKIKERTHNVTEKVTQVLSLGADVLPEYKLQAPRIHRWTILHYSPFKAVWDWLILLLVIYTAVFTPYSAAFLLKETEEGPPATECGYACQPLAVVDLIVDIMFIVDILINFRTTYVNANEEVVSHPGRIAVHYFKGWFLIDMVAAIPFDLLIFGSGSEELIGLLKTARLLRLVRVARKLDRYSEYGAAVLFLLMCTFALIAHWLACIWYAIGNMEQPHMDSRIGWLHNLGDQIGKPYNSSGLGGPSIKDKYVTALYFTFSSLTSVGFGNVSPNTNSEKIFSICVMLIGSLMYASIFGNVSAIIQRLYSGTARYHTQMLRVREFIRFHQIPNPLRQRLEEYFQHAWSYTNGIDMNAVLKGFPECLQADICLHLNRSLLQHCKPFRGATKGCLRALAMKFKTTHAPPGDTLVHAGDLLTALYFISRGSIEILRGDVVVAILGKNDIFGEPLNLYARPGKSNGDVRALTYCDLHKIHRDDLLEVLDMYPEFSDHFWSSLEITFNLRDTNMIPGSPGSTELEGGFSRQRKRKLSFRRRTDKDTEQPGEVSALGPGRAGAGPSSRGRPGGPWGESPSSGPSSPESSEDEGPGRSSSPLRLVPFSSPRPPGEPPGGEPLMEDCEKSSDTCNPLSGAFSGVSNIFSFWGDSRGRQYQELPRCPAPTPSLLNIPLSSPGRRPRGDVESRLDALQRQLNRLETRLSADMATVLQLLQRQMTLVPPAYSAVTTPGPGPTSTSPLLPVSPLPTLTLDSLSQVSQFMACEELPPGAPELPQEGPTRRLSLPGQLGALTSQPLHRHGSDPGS

[6] = biological target: T4, CYP1A (Homo sapiens, UniProt P05177); settings: cited from earlier work
T4 sequence (P05177 1-516): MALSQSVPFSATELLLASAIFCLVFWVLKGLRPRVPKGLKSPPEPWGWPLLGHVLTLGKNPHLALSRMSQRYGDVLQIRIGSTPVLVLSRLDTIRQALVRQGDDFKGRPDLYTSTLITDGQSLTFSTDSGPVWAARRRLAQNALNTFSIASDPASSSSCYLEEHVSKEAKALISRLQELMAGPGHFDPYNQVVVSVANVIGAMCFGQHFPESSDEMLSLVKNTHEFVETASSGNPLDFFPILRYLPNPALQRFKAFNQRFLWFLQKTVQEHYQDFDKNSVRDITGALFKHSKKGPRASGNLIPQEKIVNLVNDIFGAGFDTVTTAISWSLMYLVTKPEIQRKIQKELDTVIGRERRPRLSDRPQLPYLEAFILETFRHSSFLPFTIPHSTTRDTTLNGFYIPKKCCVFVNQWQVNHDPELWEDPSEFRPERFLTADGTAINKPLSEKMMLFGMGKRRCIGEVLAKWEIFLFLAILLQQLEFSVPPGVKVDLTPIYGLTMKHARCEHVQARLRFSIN

[7] = biological target: T5, CYP2B6 (Homo sapiens, UniProt P20813); settings: cited from earlier work
T5 sequence (P20813 1-491): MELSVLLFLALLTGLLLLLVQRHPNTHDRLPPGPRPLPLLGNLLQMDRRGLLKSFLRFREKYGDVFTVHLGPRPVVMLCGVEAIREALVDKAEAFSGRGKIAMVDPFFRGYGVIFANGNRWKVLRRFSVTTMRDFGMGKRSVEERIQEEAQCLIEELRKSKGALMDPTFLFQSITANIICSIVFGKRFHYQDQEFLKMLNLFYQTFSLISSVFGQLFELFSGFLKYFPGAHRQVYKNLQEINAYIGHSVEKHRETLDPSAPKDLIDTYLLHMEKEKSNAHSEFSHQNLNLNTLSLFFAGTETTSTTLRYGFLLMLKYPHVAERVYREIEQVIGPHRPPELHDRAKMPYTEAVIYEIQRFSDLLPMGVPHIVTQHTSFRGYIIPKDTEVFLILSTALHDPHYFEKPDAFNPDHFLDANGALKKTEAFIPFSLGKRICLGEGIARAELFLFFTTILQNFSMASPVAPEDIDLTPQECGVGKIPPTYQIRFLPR

[8] = biological target: T6, CYP2C8 (Homo sapiens, UniProt P10632); settings: cited from earlier work
T6 sequence (P10632 1-490): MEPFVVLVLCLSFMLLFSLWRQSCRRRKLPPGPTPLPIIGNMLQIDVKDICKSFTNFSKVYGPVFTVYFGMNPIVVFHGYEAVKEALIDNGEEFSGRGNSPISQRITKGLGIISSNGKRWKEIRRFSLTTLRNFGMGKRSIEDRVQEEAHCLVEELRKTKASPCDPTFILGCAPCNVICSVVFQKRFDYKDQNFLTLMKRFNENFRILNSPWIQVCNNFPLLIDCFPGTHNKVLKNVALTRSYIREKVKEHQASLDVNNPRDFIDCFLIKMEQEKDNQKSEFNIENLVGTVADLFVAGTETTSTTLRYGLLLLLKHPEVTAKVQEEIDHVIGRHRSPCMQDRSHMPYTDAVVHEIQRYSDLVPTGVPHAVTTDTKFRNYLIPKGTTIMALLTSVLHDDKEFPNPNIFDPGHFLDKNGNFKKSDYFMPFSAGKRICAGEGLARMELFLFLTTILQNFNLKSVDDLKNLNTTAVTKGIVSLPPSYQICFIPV

[9] = biological target: T7, CYP2C9 (Homo sapiens, UniProt P11712); settings: cited from earlier work
T7 sequence (P11712 whole entry): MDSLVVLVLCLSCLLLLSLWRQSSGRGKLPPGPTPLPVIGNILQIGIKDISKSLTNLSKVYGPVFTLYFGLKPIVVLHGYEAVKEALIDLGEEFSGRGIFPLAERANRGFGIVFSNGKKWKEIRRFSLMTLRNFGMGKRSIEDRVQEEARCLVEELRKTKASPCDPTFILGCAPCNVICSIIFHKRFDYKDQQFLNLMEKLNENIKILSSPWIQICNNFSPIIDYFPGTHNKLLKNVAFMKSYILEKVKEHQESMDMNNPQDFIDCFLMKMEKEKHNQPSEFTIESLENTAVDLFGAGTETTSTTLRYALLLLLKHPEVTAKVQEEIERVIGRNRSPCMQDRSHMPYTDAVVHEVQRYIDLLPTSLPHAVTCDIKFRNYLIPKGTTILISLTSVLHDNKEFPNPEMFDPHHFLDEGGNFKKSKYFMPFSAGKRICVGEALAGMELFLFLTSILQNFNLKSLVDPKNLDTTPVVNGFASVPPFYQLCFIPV

[10] = biological target: T8, CYP2C19 (Homo sapiens, UniProt P33261); settings: cited from earlier work
T8 sequence (P33261 whole entry): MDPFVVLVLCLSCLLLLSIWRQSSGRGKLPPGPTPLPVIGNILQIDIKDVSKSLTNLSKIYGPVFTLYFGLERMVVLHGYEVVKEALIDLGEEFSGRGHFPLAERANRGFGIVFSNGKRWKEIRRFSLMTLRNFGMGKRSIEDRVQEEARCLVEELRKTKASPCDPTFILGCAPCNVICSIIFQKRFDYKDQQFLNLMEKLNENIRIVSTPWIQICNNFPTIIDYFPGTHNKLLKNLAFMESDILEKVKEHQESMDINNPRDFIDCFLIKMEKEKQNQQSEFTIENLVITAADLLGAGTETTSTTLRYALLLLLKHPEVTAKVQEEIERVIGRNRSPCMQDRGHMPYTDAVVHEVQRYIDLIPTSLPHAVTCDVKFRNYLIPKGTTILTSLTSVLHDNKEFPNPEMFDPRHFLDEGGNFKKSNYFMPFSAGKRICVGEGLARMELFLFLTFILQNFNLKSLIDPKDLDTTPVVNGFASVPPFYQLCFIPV

[11] = biological target: T9, CYP2D6 (Homo sapiens, UniProt P10635); settings: cited from earlier work
T9 sequence (P10635 whole entry): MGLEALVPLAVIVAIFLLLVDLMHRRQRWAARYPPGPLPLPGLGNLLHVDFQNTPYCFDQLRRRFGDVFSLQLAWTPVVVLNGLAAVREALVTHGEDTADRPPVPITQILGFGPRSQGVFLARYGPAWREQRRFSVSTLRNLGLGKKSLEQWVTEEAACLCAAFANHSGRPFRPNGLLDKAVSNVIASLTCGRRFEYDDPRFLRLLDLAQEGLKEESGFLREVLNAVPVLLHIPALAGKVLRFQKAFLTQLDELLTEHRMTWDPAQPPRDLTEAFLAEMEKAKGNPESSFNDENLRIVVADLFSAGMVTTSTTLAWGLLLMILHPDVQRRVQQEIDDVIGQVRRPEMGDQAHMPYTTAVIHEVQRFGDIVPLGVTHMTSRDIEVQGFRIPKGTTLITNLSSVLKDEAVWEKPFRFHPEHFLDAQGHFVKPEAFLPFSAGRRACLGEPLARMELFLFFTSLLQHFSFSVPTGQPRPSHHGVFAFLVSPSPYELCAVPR

[12] = test system: CYP3A; settings: cited from earlier work
[13] = test system: hippocampus glucose metabolism; settings: previously tested in similar tests; cited from earlier work
[14] = test system: infantile spasms; settings: cited from earlier work
[15] = test system: cocaine addiction; settings: 9-week double-blind trial; cited from earlier work
[16] = after long-term administration; cited from earlier work
[17] = biological target: T1, aspartate aminotransferase (Asp-AT); test: Inhibition of aspartate aminotransferase; type: biochemical
[18] = test system: alanine aminotransferase (Ala-AT); test: Inhibition of alanine aminotransferase; type: biochemical
[19] = biological target: T2, ornithine aminotransferase (OAT); test: Time- and concentration-dependent inhibition of ornithine aminotransferase; type: biochemical
[20] = biological target: T3, hERG channel; test: Inhibition of the hERG channel; type: cell-based; settings: at 10 μM
[21] = biological target: T4, CYP1A; test: CYP1A inhibition; type: in vitro ADME; settings: 10 μM
[22] = biological target: T5, CYP2B6; test: CYP2B6 inhibition; type: in vitro ADME; settings: 10 μM
[23] = biological target: T6, CYP2C8; test: CYP2C8 inhibition; type: in vitro ADME; settings: 10 μM
[24] = biological target: T7, CYP2C9; test: CYP2C9 inhibition; type: in vitro ADME; settings: 10 μM
[25] = biological target: T8, CYP2C19; test: CYP2C19 inhibition; type: in vitro ADME; settings: 10 μM
[26] = biological target: T9, CYP2D6; test: CYP2D6 inhibition; type: in vitro ADME; settings: 10 μM
[27] = test system: CYP3A; test: CYP3A inhibition; type: in vitro ADME, human; settings: 10 μM
[28] = Metabolic stability in human liver microsomes; type: in vitro ADME; settings: 1 μM, 90 min assay time, 37 °, LC-MS/MS
[29] = test system: 176 pharmacological targets; test: Cerep SpectrumScreen; settings: 3 μM
[30] = Ames test for mutagenicity
[31] = Irwin; set-up: species or system mice; settings: mouse, in vivo, po
[32] = test system: hippocampus glucose metabolism; test: microPET 18FDG, cocaine-induced increases in glucose metabolism; type: in vivo, rat; settings: 5 before cocaine, statistical parametric mapping, p < 0.00001
[33] = 5 0.1 mg/kg prior to cocaine 10 mg/kg
[34] = 5 1.0 mg/kg prior to cocaine 10 mg/kg

T1 sequence (P00503 2-413): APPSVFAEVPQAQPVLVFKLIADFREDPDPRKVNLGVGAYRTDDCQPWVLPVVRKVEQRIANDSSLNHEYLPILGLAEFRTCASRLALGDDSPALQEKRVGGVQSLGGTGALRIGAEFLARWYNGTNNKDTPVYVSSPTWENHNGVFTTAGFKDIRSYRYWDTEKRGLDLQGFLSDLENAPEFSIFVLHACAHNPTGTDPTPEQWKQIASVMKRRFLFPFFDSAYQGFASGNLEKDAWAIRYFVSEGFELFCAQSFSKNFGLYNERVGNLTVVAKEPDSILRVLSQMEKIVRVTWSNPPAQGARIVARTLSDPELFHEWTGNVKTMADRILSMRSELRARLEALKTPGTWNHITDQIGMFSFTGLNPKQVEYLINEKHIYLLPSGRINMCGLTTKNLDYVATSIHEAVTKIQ

COC(=O)[C@H]1[C@@H](OC(=O)c2ccccc2)C[C@@H]2CC[C@H]1N2C [Cocaine, cocaine, reference compound]
%= (Percent inhibition of cocaine-induced increase in synaptic dopamine) ([1]; cocaine 10 mg/kg alone): −36% | ST-CB/CB ([1]; cocaine 10 mg/kg alone): 2.39 ± 0.21 | reduction of [11C]-raclopride binding ([1]; cocaine 10 mg/kg alone): 36%

N[C@H]1C[C@@H](C(=O)O)CC1=C(F)F [CPP-115, (1S,3S)-3-amino-4-difluoromethylenyl-1-cyclopentanoic acid]
inactivation or inhibition of off-target enzyme [2]: not to inactivate or inhibit | inactivation or inhibition of off-target enzyme [3]: not to inactivate or inhibit | Ki [4]: 116 µM | inhibition of the activity of the hERG channel [5]: does not inhibit | CYP inhibition or induction [6]: does not inhibit or induce | CYP inhibition or induction [7]: does not inhibit or induce | CYP inhibition or induction [8]: does not inhibit or induce | CYP inhibition or induction [9]: does not inhibit or induce | CYP inhibition or induction [10]: does not inhibit or induce | CYP inhibition or induction [11]: does not inhibit or induce | CYP inhibition or induction [12]: does not inhibit or induce | block of cocaine-induced hippocampal metabolism [13]: did not completely block | doses suppressing spasms, lower than those used for vigabatrin [14]: over 100 fold

C=CC(N)CCC(=O)O (stereo not drawn) [vigabatrin]
block of cocaine-induced hippocampal metabolism [13]: did not completely block | patients achieving abstinence [15]: up to 28% | patients with permanent retinal damage [16]: 25–40%

N[C@H]1C=C(C(=O)O)CC1=C(F)F [Compound 5, (S)-3-amino-4-(difluoromethylenyl)cyclopent-1-ene-1-carboxylic acid]
time-dependent inhibition [17]: does not cause time-dependent inhibition | time-dependent inhibition [18]: does not cause time-dependent inhibition | IC50 ([18]; reversible inhibition): > 4000 µM | more effective at inhibiting GABA-AT than OAT ([19]; GABA-AT versus OAT): 44 times | efficiency as an inactivator of OAT relative to CPP-115 ([19]; ratio of kinact/KI): 9.0 times | inhibition of the activity of the hERG channel [20]: does not inhibit | CYP inhibition or induction [21]: does not inhibit or induce | CYP inhibition or induction [22]: does not inhibit or induce | CYP inhibition or induction [23]: does not inhibit or induce | CYP inhibition or induction [24]: does not inhibit or induce | CYP inhibition or induction [25]: does not inhibit or induce | CYP inhibition or induction [26]: does not inhibit or induce | CYP inhibition or induction [27]: does not inhibit or induce | metabolism in human liver microsomes [28]: No metabolism | activity at 176 pharmacological targets [29]: no significant activity | Ames test for mutagenicity [30]: negative | NOAEL [31]: 6 mg/kg | reduction of [11C]-raclopride binding ([1]; 5 0.01 mg/kg 30 minutes prior to cocaine): 20% | ST-CB/CB ([1]; 5 0.01 mg/kg 30 minutes prior to cocaine 10 mg/kg): 3.01 ± 0.44 | %= (Percent inhibition of cocaine-induced increase in synaptic dopamine) ([1]; 5 0.01 mg/kg prior to cocaine 10 mg/kg): −20% | reduction of [11C]-raclopride binding ([1]; 5 0.1 mg/kg prior to cocaine): 12% | %= (Percent inhibition of cocaine-induced increase in synaptic dopamine) [1, 33]: −12% | ST-CB/CB [1, 33]: 3.31 ± 0.52 | change in [11C]-raclopride binding ([1]; 5 1.0 mg/kg prior to cocaine): no significant change | %= (Percent inhibition of cocaine-induced increase in synaptic dopamine) [1, 34]: −5% | ST-CB/CB [1, 34]: 3.56 ± 2.11 | reduction of [11C]-raclopride binding ([1]; 5 1.0 mg/kg prior to cocaine (comparable to control)): 5% | change in [11C]-raclopride binding ([1]; 5 1.0 mg/kg prior to nicotine): no significant change | cocaine-induced activation in the hippocampus (18FDG uptake) [32]: no activation in the hippocampus was detected

Reference: article PMC5812813 (Journal of the American Chemical Society, 2018)
